pKi: −log10 of the molar value.
Columns and labels:
renal dipeptidase = molecular target: T1, renal dipeptidase (Sus scrofa, UniProt P22412); test: affinity and hydrolysis of substrates by renal dipeptidase; type: biochemical, pig (hog kidneys); details: compared with thienamycin
T1 construct: disulfide-linked homodimer
T1 sequence (P22412 17-384): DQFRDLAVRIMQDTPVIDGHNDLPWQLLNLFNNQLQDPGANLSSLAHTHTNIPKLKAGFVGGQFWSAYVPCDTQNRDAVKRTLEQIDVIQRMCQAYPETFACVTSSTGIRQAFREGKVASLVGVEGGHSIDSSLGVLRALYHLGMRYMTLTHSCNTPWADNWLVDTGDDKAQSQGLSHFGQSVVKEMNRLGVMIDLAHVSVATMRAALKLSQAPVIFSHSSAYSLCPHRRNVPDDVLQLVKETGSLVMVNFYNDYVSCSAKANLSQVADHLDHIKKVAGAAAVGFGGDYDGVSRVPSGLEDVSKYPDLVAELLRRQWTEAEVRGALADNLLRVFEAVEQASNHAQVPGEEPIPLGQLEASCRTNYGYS

[1] = molecular target: T2, dipeptidase (E.C.3.4.13.11), pig renal enzyme (Sus scrofa, UniProt P22412); test: in vitro inhibition of hydrolysis of glycyldehydrophenylalanine (GDP) by solubilized renal dipeptidase; type: biochemical, pig (hog kidneys)
T2 construct: solubilized preparation of dipeptidase isolated from hog kidneys; from tissue; host or cells: hog kidney
T2 sequence (P22412 17-409): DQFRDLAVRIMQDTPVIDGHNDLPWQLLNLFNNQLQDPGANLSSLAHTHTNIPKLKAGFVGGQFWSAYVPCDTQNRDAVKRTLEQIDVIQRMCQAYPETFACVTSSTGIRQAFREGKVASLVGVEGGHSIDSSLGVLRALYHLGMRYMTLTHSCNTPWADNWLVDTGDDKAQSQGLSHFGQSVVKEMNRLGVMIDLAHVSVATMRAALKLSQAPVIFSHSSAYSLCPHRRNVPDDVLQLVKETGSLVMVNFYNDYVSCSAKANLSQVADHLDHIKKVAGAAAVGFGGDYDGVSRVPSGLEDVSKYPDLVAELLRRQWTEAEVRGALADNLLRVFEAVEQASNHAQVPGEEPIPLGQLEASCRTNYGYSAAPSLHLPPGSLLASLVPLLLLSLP
Procedure: This measured the ability of compounds to inhibit hydrolysis of glycyldehydrophenylalanine (GDP) by a solubilized preparation of dipeptidase isolated from hog kidneys. The procedure is as follows: to a 1 ml. system containing 50 mM "MOPS" (3-(N-morpholino)propanesulfonic acid) buffer, pH 7.1, is added 5 μg of lyophilized enzyme, and the test compound at a final concentration of 0.1 mM. After a five minute incubation at 37° C., GDP is added to a final concentration of 0.05 mM. Incubation is continued for 10 minutes, at 37° C. and hydrolysis of GDP is measured by the change in optical density with time at 275 nm. Inhibition of the enzyme is gauged by comparison to a standard run containing no inhibitor and is expressed as the inhibitor binding constant, Ki.
A 1 ml. system of 50 mM "MOPS" buffer, pH 7.1, is used. To this is added 5 μg of the pig renal enzyme and an amount of the test compound to bring its final concentration to 0.1 mM. After a five minute incubation at 37° C., an amount of GDP is added to bring its final concentration to 0.05 mM. The system is again incubated for 10 minutes, at 37° C. Hydrolysis of GDP is measured by its change in optical density with time at 275 nm. Inhibition of the enzyme is gauged by comparison to a standard run containing no inhibitor and is presented as percent inhibition.

With `NCC(=O)NC(=Cc1ccccc1)C(=O)O` [GDP, glycyldehydrophenylalanine] as the compound, how does the “maximal velocity of hydrolysis by renal dipeptidase” value (renal dipeptidase) read?
The value was “much higher maximal velocity of hydrolysis”.

`CC1(C)CC1C(=O)N/C(=C\CCCC(=O)O)C(=O)O` (racemic) [Compound 64] was tested. Which pKi ([1]; pH 7.1, 37° C., concentration giving 50% inhibition, calculated from multiple assays, GDP substrate) did it give?
The pKi was 7.32.

How did the “activity of resolved isomers” value ([1]; resolved racemic octenoic acid, test not specified) turn out when `CCCCC/C=C(\NC(=O)[C@H]1CC1(C)C)C(=O)O` [dextrorotatory isomer, (+) Z-2-(2,2-dimethylcyclopropanecarboxamido)-2-octenoic acid] was run?
The value was “The activity resides in the dextrorotatory isomer”.

Source: patent US5147868A, “Thienamycin renal peptidase inhibitors” (Merck & Co., Inc., priority 1992, dated 1992)
